Laboratory results from patent US6616940B2, “Process for decreasing adiposity using Vitamin A as a dietary supplement” (The Procter & Gamble Company, priority 1998, dated 2003).

Tests used:
[1] = tested on: β3-adrenergic receptor mRNA; test: β3-adrenergic receptor mRNA levels in PWAT and BAT; type: in vivo, rats; settings: for β3AR mRNA levels, BAT / β3AR mRNA levels, PWAT: CGP-12177 0.75 mg/kg i.p., 4 h, mean ± SE
Description: (§1) Rats were fed a diet containing either, 8,643 IU retinol/kg diet (normal diet) or 430,431 IU retinol/kg diet (vitamin A supplemented diet) for a period of 8 weeks. Food and water were provided ad libitum. Body weights and food intake were recorded weekly. Basal whole body oxygen consumption was measured before starting the diet and then after week 3, 6 and 8 on the diet. At the end of 8 weeks, half the rats from each group were challenged with a single dose of the β3 adrenergic specific agonist, CGP-12177 (prepared in pyrogen-free saline, available from Ciba-Geigy, Summit, N.J.) (0.75 mg/kg, i.p.) or saline. The stimulated whole body oxygen consumption was measured and the animals sacrificed 4 hours after injection.
(§2) Total cellular RNA was extracted using a modification of the method described in Chomczynski and Sacchi, “Single step method of RNA isolation by acid guanidinium thiocyanate-phenolchloroform extraction”, Analytical Biochemistry 162:156-159 (1987). The integrity of the isolated RNA was verified using 1% agarose gels stained with ethidium bromide. The RNA was quantified by spectrophotometric absorption at 260 nm using multiple dilutions of each sample.
(§3) For dot-blot analysis, multiple concentrations of RNA were immobilized on nylon membranes using a dot-blot apparatus (Biorad, Richmond, Calif.). The membranes were baked at 80° C. for 2 hrs. The baked membranes were prehybridized using 25 mM potassium phosphate, 750 mM NaCl, 75 mM Na citrate, 5× Denhardt's solution, 50 μg/ml denatured salmon sperm DNA, and 50% formamide. After incubation for 14-16 hrs. at 42° C, the membranes were hybridized with ^32P labeled probes in the prehybridization buffer plus 10% dextran sulfate. After hybridization for 14-16 hr at 42° C., the membranes were washed and exposed to a phosphor imaging screen for 48 hrs. The latent image was scanned using a Phosphor Imager (Molecular Dynamic, Sunnyvale, Calif.) and analyzed by Image Quant Software (Molecular Dynamics). Intensities per μg total cellular RNA were calculated by comparison to internal laboratory standards of WAT or BAT total RNA present on each nylon membrane.

[2] = Whole body oxygen consumption (basal and CGP-12177-stimulated); type: in vivo; settings: rats on normal and vitamin A supplemented diets, 0.75 mg/kg i.p., vs saline injected rats
Description: as §1
O2 consumption was assessed on up to four rats simultaneously with an Oxyscan analyzer (OXS-4; Amniotic Electronics, Columbus, Ohio). All experiments were performed on conscious unanesthetized rats during the light phase of the light-dark cycle. Flow rates were 2 L/min with a 30 second sampling time at 5 minute intervals. The temperature was maintained at 26° C. Results were expressed on a mass-dependent basis (ml/min/kg^0.67). The cumulative increase in the CGP12177-stimulated oxygen consumption was calculated as the average increase over baseline from 30 min to 110 min, post injection.

leptin mRNA = test: Leptin mRNA levels in PWAT (dot-blot); type: in vivo, rats; settings: CGP-12177 0.75 mg/kg i.p.
Description: (§4) Rats were fed a diet containing either, 8,643 IU retinol/kg diet (normal diet) or 430,431 IU retinol/kg diet (vitamin A supplemented diet) for a period of 8 weeks. Food and water were provided ad libitum. Body weights and food intake were recorded weekly. Basal whole body oxygen consumption was measured before starting the diet and then after week 3, 6 and 8 on the diet. At the end of 8 weeks, half the rats from each group were challenged with a single dose of the β3 adrenergic specific agonist, CGP-12177 (prepared in pyrogen-free saline, available from Ciba-Geigy, Summit, […].) or saline. The stimulated whole body oxygen consumption was measured and the animals sacrificed 4 hours after injection. Total cellular RNA was extracted using a modification of the method described in Chomczynski and Sacchi, “Single step method of RNA isolation by acid guanidinium thiocyanate-phenolchloroform extraction”, Analytical Biochemistry 162:156-159 (1987). […] The RNA was quantified by spectrophotometric absorption at 260 nm using multiple dilutions of each sample. […] The latent image was scanned using a Phosphor Imager (Molecular Dynamic, Sunnyvale, Calif.) and analyzed by Image Quant Software (Molecular Dynamics). Intensities per μg total cellular RNA were calculated by comparison to internal laboratory standards of WAT or BAT total RNA present on each nylon membrane.

UCP2 mRNA = UCP2 mRNA levels in PWAT and BAT; type: in vivo, rats; settings: CGP-12177 0.75 mg/kg i.p., 4 h, mean ± SE
Description: as §1, §2, §3

UCP1 mRNA = UCP1 mRNA levels in BAT (dot-blot); type: in vivo; settings: rats on both vitamin A supplemented and normal diets, 0.75 mg/kg i.p., 4 h (FIG. 4)
Description: as §4

β-actin mRNA = β-actin mRNA levels in BAT; type: in vivo, rats; settings: CGP-12177 0.75 mg/kg i.p., 4 h, mean ± SE
Description: as §4

## CC(C)(C)NCC(O)COc1cccc2[nH]c(=O)[nH]c12 (stereo not shown) [CGP-12177]
[1]; CGP-12177 for 4 h, rats on vitamin A supplemented and normal diets, vs saline treated
  Down regulation of β3-adrenergic receptor mRNA levels in BAT: 50%
[1]; Normal Diet
  β3AR mRNA levels, BAT: 50.9 ± 3.3 arbitrary units
  β3AR mRNA levels, PWAT: 105 ± 6.0 arbitrary units
[1]; Vitamin A supplemented diet
  β3AR mRNA levels, BAT: 59.8 ± 7.9 arbitrary units
  β3AR mRNA levels, PWAT: 112 ± 11 arbitrary units
[2]
  Oxygen consumption upon administration of CGP-12177: rapid and sustained increase
Leptin mRNA; rats on normal diet, 4 hr (FIG. 2)
  Suppression of leptin mRNA levels in PWAT: 27%
Leptin mRNA; rats on vitamin A supplemented diet, 4 hr, vs saline on same diet
  Effect on leptin mRNA levels in PWAT: no further effect
UCP2 mRNA; Normal Diet
  UCP2 mRNA levels, BAT: 93.4 ± 12.2 arbitrary units
UCP2 mRNA; Normal Diet, 0.75 mg/kg
  UCP2 mRNA levels, PWAT: 109 ± 10 arbitrary units
UCP2 mRNA; Normal Diet, listed as CGP12177, 0.75 mg/kg
  UCP2 mRNA levels, PWAT: no effect
UCP2 mRNA; Vitamin A supplemented diet
  UCP2 mRNA levels, BAT: 94 ± 8.9 arbitrary units
  UCP2 mRNA levels, PWAT: 110 ± 10 arbitrary units
UCP1 mRNA
  UCP1 mRNA levels in BAT upon administration of CGP-12177: significant but similar increase
β-actin mRNA; Normal Diet
  β-actin mRNA levels, BAT: 98.6 ± 7.4 arbitrary units
β-actin mRNA; Vitamin A supplemented diet
  β-actin mRNA levels, BAT: 93.8 ± 8.0 arbitrary units
